Data taken from PubChem BioAssay (NCI).
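The compound was tested at five concentrations on cells cultured in 96-well plates, with a 48-hour exposure period. TGI denotes the concentration required for complete inhibition of growth.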

How the values were obtained:
Test in all cases: growth of human tumour cells (NCI), 48 h
HOP-92 NSCLC = system: HOP-92 NSCLC
MOLT-4 leukemia = system: MOLT-4 leukemia
HS 578T breast = system: HS 578T breast
HCC-2998 colon = system: HCC-2998 colon
A549 NSCLC = system: A549 NSCLC
HOP-62 NSCLC = system: HOP-62 NSCLC
OVCAR-4 ovarian = system: OVCAR-4 ovarian
SK-MEL-28 melanoma = system: SK-MEL-28 melanoma
HCT-116 colon = system: HCT-116 colon
NCI-H460 lung = system: NCI-H460 lung
SNB-19 CNS = system: SNB-19 CNS
786-0 renal = system: 786-0 renal
SN12C renal = system: SN12C renal
RPMI-8226 leukemia = system: RPMI-8226 leukemia
SF-539 CNS = system: SF-539 CNS
U251 CNS = system: U251 CNS
K-562 leukemia = system: K-562 leukemia
A498 renal = system: A498 renal

| Structure (SMILES) | TGI (HOP-92 NSCLC) [µM] | TGI (MOLT-4 leukemia) [µM] | TGI (HS 578T breast) [µM] | TGI (HCC-2998 colon) [µM] | TGI (A549 NSCLC) [µM] | TGI (HOP-62 NSCLC) [µM] | TGI (OVCAR-4 ovarian) [µM] | TGI (SK-MEL-28 melanoma) [µM] | TGI (HCT-116 colon) [µM] | TGI (NCI-H460 lung) [µM] | TGI (SNB-19 CNS) [µM] | TGI (786-0 renal) [µM] | TGI (SN12C renal) [µM] | TGI (RPMI-8226 leukemia) [µM] | TGI (SF-539 CNS) [µM] | TGI (U251 CNS) [µM] | TGI (K-562 leukemia) [µM] | TGI (A498 renal) [µM] |
| --- | --- | --- | --- | --- | --- | --- | --- | --- | --- | --- | --- | --- | --- | --- | --- | --- | --- | --- |
| C/C(=N\NC(=O)/C(C#N)=C\c1ccc(N(CCC#N)CCC#N)cc1)c1ccccc1 | > 10 | > 10 | > 10 | > 10 | > 10 | > 10 | > 10 | > 10 | > 10 | > 10 | > 10 | > 10 | > 10 | > 10 | > 10 | – | – | – |
| Cc1ccc(S(=O)(=O)[N-]C2C(=O)c3ccccc3C(=O)C2[n+]2cccc(C(N)=O)c2)cc1 (stereo unspecified) | > 100 | > 100 | > 100 | > 100 | > 100 | > 100 | > 100 | > 100 | 36 | > 100 | > 100 | > 100 | > 100 | > 100 | > 100 | > 100 | > 100 | – |
| CC(=O)NCC1(c2ccccc2)CCN(CC2COc3ccccc3O2)CC1 (stereo unspecified) | – | > 100 | > 100 | > 100 | > 100 | > 100 | > 100 | > 100 | > 100 | > 100 | > 100 | > 100 | > 100 | > 100 | > 100 | > 100 | > 100 | > 100 |
| O=C1/C(=C/c2ccc(Cl)cc2)NC(=S)N1CN1CCOCC1 | > 100 | > 100 | > 100 | – | > 100 | > 100 | > 100 | > 100 | > 100 | – | > 100 | > 100 | > 100 | > 100 | – | > 100 | > 100 | > 100 |
| O=c1oc2cc(O)ccc2c(O)c1C(c1ccccn1)c1c(O)c2ccc(O)cc2oc1=O | > 100 | > 100 | > 100 | > 100 | > 100 | > 100 | – | > 100 | > 100 | > 100 | > 100 | > 100 | > 100 | > 100 | > 100 | > 100 | > 100 | > 100 |
| CCOC(=O)c1cc(C2CCN(CC(C)CC)C2=S)c(C(=O)/C=C(/C)N)[nH]1 (stereo unspecified) | – | > 50 | > 50 | – | – | > 50 | – | – | > 50 | > 50 | > 50 | > 50 | > 50 | > 50 | > 50 | > 50 | > 50 | > 50 |
| CS(=O)(=O)c1[nH]nc2[nH]c(=O)[nH]c(=O)c12 | > 10 | > 10 | > 10 | > 10 | > 10 | > 10 | > 10 | > 10 | > 10 | > 10 | > 10 | > 10 | > 10 | – | > 10 | > 10 | – | > 10 |
| NC1=CC(C(=O)c2ccncc2)c2nc3ccccc3nc21 (stereo unspecified) | > 100 | > 100 | > 100 | > 100 | > 100 | > 100 | > 100 | > 100 | > 100 | > 100 | > 100 | > 100 | > 100 | > 100 | > 100 | > 100 | – | > 100 |
| c1ccc2[nH]c3[nH]c4[nH]c5ccccc5[nH]c4[nH]c3[nH]c2c1 | – | > 100 | > 100 | > 100 | > 100 | > 100 | – | > 100 | > 100 | > 100 | > 100 | > 100 | > 100 | > 100 | > 100 | > 100 | > 100 | > 100 |
| COc1ccc(-n2c3c(c4cc(O)ccc42)C(=O)c2ccccc2C3=O)cc1 | 47.5 | > 100 | > 100 | – | > 100 | 12.7 | > 100 | > 100 | 1.25 | > 100 | > 100 | 11.5 | 92.9 | > 100 | 11.5 | – | > 100 | 22.5 |
| CCOc1ccc(N/C(=C(/C(Cl)=C(/Cl)NCCO)[N+](=O)[O-])n2nnc3ccccc32)cc1 | – | > 100 | 38.8 | > 100 | > 100 | > 100 | > 100 | 37.7 | > 100 | > 100 | > 100 | 81.7 | 49.1 | > 100 | 93 | 58.7 | > 100 | > 100 |
| NC(C(F)(F)F)(C(F)(F)F)P(=O)(c1ccccc1)c1ccccc1 | > 100 | > 100 | > 100 | > 100 | > 100 | > 100 | > 100 | > 100 | > 100 | > 100 | > 100 | > 100 | > 100 | > 100 | > 100 | > 100 | > 100 | – |
| Nc1nc(Cl)cc(NCC2(CO)CCC2)n1 | > 100 | > 100 | > 100 | > 100 | > 100 | > 100 | > 100 | > 100 | > 100 | > 100 | > 100 | > 100 | > 100 | > 100 | > 100 | > 100 | > 100 | – |
| CCOC(=O)c1nnsc1NC(=O)Nc1ccc(Cl)cc1 | – | > 100 | > 100 | > 100 | > 100 | > 100 | 51.2 | > 100 | 70.5 | 32.1 | > 100 | 42.4 | > 100 | > 100 | – | > 100 | > 100 | – |
| COc1cc(C)cc2c1C(=O)C(Br)=CC2=O | 5.41 | 5.19 | 71.5 | 35 | 43.4 | 32.5 | 7.71 | 33.3 | 18.6 | 38.4 | 30.2 | 8.16 | 30.9 | – | 28.5 | 37.4 | – | 34.5 |
| COc1ccc(C2CC(=O)Oc3ccccc3O2)cc1 (stereo unspecified) | – | > 100 | > 100 | > 100 | > 100 | > 100 | > 100 | > 100 | > 100 | > 100 | > 100 | > 100 | > 100 | > 100 | > 100 | > 100 | > 100 | – |
| COC(=O)/C(C#N)=C1\NC(=O)CC(c2ccccc2)C1C#N (stereo unspecified) | > 100 | > 100 | > 100 | > 100 | > 100 | > 100 | > 100 | > 100 | > 100 | > 100 | > 100 | > 100 | > 100 | > 100 | > 100 | – | > 100 | – |
| Cc1[nH]n(-c2nc3c(c(=O)[nH]2)CCC3)c(=O)c1CCO | – | > 100 | > 100 | > 100 | > 100 | > 100 | > 100 | > 100 | > 100 | > 100 | > 100 | > 100 | > 100 | > 100 | > 100 | > 100 | > 100 | > 100 |
| Cn1cnc2c(OCC3CCCCC3)nc(N)nc21 | > 100 | > 100 | > 100 | > 100 | > 100 | > 100 | > 100 | > 100 | > 100 | > 100 | > 100 | > 100 | > 100 | > 100 | > 100 | > 100 | > 100 | – |
| CCCCCC(=O)OCC(=O)[C@H]1[C@H](C)C[C@H]2[C@@H]3C[C@H](F)C4=C/C(=N/OC(=O)c5cccc6c(=O)c7ccccc7[nH]c56)C=C[C@]4(C)[C@H]3[C@@H](O)C[C@@]21C | > 100 | > 100 | > 100 | 82.4 | > 100 | > 100 | > 100 | – | 85.3 | – | > 100 | > 100 | > 100 | 14.9 | > 100 | > 100 | > 100 | – |
| COc1ccc(C2CCC(Cl)(OC)CC2C=O)cc1 (stereo unspecified) | > 100 | > 100 | – | > 100 | > 100 | > 100 | > 100 | > 100 | > 100 | > 100 | > 100 | > 100 | > 100 | > 100 | > 100 | > 100 | > 100 | > 100 |
| C[C@H]1C(OCCOC2O[C@@H]3O[C@@]4(C)CC[C@H]5[C@H](C)CCC([C@H]2C)[C@@]35O4)O[C@@H]2O[C@@]3(C)CC[C@H]4[C@H](C)CCC1[C@@]24O3 (stereo partly specified) | > 100 | > 100 | – | 43.7 | > 100 | > 100 | > 100 | > 100 | 78.6 | > 100 | > 100 | > 100 | 52.6 | > 100 | > 100 | > 100 | > 100 | > 100 |
| CC(=N/NC(=S)Nc1c(C)n(C)n(-c2ccccc2)c1=O)/C(C)=N\NC(=S)Nc1c(C)n(C)n(-c2ccccc2)c1=O | > 100 | > 100 | > 100 | > 100 | > 100 | > 100 | > 100 | – | > 100 | > 100 | > 100 | > 100 | – | – | > 100 | > 100 | – | > 100 |
| COc1ccc(C2SC(N)=Nc3c2c(C)nn3C(=O)c2ccc(Cl)cc2)cc1 (stereo unspecified) | > 10 | > 10 | > 10 | > 10 | > 10 | > 10 | > 10 | > 10 | > 10 | > 10 | > 10 | > 10 | > 10 | > 10 | > 10 | > 10 | > 10 | – |
| CCCC(=O)N/S(=N/S(=O)(=O)c1ccc(Cl)cc1)C(Cl)(Cl)Cl (stereo unspecified) | – | > 100 | > 100 | > 100 | > 100 | > 100 | – | > 100 | > 100 | > 100 | > 100 | > 100 | > 100 | – | > 100 | > 100 | > 100 | > 100 |
| CCOC(=O)C1=C(O)c2ccccc2C(=O)C1=O | > 100 | > 100 | – | > 100 | > 100 | > 100 | > 100 | > 100 | > 100 | > 100 | > 100 | > 100 | > 100 | > 100 | > 100 | > 100 | > 100 | > 100 |
| CN1CC2=C(NC(=S)NC2c2ccc(Cl)cc2)/C(=C/c2ccc(Cl)cc2)C1 (stereo unspecified) | – | 30.2 | 40.3 | 34 | 45.1 | 36.4 | – | 33.9 | 29.2 | 28.1 | – | 52.3 | 36.4 | 92.4 | 62.9 | 33.3 | 32.7 | – |
| Cc1cn(CC2=NCC(C)(C)CN2)c(=O)[nH]c1=O | > 100 | – | > 100 | > 100 | > 100 | > 100 | – | > 100 | > 100 | > 100 | > 100 | > 100 | > 100 | – | – | > 100 | – | > 100 |
